Here are results for 15 molecules from patent US10538555B2, “Macrocyclic inhibitors of the PD-1/PD-L1 and CD80(B7-1)/PD-L1 protein/protein interactions” (BRISTOL-MYERS SQUIBB COMPANY, priority 2014, dated 2020).

SMILES strings stand for the structures. *1 amine or outer side, *2 acyl side, *3 side chain or, on linkers, in order; H or OH if unused. Where a SMILES comes first, the peptide text is derived from it. Bridges are numbered along the chain shown (N, C = ends). [ ]: non-standard residue; d: D form. ξ: configuration not given here. Trp(1-CH2COOH) = N[C@@H](Cc1cn(CC(=O)O)c2ccccc12)C(=O)O; Phe(3,4,5-F3) = N[C@@H](Cc1cc(F)c(F)c(F)c1)C(=O)O; Phe(3,4-F2) = N[C@@H](Cc1ccc(F)c(F)c1)C(=O)O; NMePhe(4-F) = CN[C@@H](Cc1ccc(F)cc1)C(=O)O; Pro(4R-NH2) = N[C@H]1CN[C@H](C(=O)O)C1; d(cisHyp) = O=C(O)[C@H]1C[C@@H](O)CN1; Bta = N[C@@H](Cc1csc2ccccc12)C(=O)O; Hyp = O=C(O)[C@@H]1C[C@@H](O)CN1; NMeF = CN[C@@H](Cc1ccccc1)C(=O)O; X1 = O=C([C@H]1COCCN1[*:1])[*:2]; dPip(4-aza) = O=C(O)[C@H]1CNCCN1; dHyp = O=C(O)[C@H]1C[C@H](O)CN1; NMeNle = CCCC[C@H](NC)C(=O)O; Pip = O=C(O)[C@@H]1CCCCN1; dPip = O=C(O)[C@H]1CCCCN1; hSer = N[C@@H](CCO)C(=O)O; NMeA = CN[C@@H](C)C(=O)O; Orn = NCCC[C@H](N)C(=O)O; Dab = NCC[C@H](N)C(=O)O; Dap = NC[C@H](N)C(=O)O; ξC = NC(CS)C(=O)O; Sar = CNCC(=O)O

The target in the assay is T1, Human PD-L1/PD-1 (Homo sapiens, UniProt Q9NZQ7).
T1 construct: TVMV protease cleavage site (C); made in house; host or cells: HEK293T cells
The experiment in a line: HTRF Human PD-L1/PD-1 binding assay (PD-1-Ig/PD-L1-His). The following applies: PD-L1-His 10 nM, PD-1-Ig 20 nM; class symbol; read-out: HTRF Human PD-L1/PD-1 Binding Assay IC50 Range. An outline of the steps: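 Truncated Fc-fused human PD-1 (aa 25-167) at 20 nM and His-tagged PD-L1 (aa 18-239) at 10 nM final are used, with peptides preincubated 15 min with PD-L1. Detection uses europium-cryptate anti-Ig and APC anti-His antibodies; 665/620 nm ratio.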
(In general: In TR-FRET formats the signal depends on donor and acceptor labels being close together.)

T1 sequence (Q9NZQ7 with tags, fused parts or gaps): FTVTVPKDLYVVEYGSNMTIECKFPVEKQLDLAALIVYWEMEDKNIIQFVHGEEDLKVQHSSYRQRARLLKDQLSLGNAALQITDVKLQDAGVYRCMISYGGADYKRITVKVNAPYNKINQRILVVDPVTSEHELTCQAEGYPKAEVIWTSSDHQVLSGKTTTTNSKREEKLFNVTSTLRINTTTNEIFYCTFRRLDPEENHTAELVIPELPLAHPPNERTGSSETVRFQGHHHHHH

On to `CCCC[C@H]1C(=O)N2C[C@@H](O)C[C@@H]2C(=O)N[C@@H](CC(=O)O)C(=O)N[C@@H](C(C)C)C(=O)N(C)[C@@H](Cc2ccccc2)C(=O)N[C@@H](CCC(=O)O)C(=O)N2CCCC[C@@H]2C(=O)N[C@@H](Cc2c[nH]c3ccccc23)C(=O)N[C@@H](Cc2ccc(O)cc2)C(=O)N[C@@H](CCN)C(=O)N[C@H](C(=O)NCC(N)=O)CSCC(=O)N[C@@H](Cc2cc(F)c(F)c(F)c2)C(=O)N(C)[C@@H](Cc2ccc(F)cc2)C(=O)N1C` [Example 10566] ({CH2CO}-[Phe(3,4,5-F3)][NMePhe(4-F)][NMeNle][dHyp]DV[NMeF]E[dPip]WY[Dab]CG-NH2; thioether N-13), for which the IC50 fell in the range of 1 to 9.9 nM.
The figure for `CCCC[C@H]1C(=O)N(C)[C@@H](C)C(=O)N[C@@H](CCCNC(=N)N)C(=O)NC(C(=O)NCC(N)=O)CSCC(=O)N[C@@H](Cc2ccc(O)cc2)C(=O)N(C)[C@@H](C)C(=O)N[C@@H](CC(N)=O)C(=O)N2CCC[C@H]2C(=O)N[C@@H](CO)C(=O)N[C@H](CC(C)C)C(=O)N2C[C@H](O)C[C@H]2C(=O)N[C@@H](Cc2c[nH]c3ccccc23)C(=O)N[C@@H](CO)C(=O)N[C@@H](Cc2c[nH]c3ccccc23)C(=O)N1C` (stereo partly drawn) [Example 9115] ({CH2CO}-Y[NMeA]NPS[dL][Hyp]WSW[NMeNle][NMeA]R[ξC]G-NH2; thioether N-14) is 10 to 99.9 nM; for `CCCC[C@H]1C(=O)N2CCOC[C@@H]2C(=O)N[C@@H](CC(=O)O)C(=O)N[C@@H](C(C)C)C(=O)N(C)[C@@H](Cc2ccccc2)C(=O)N[C@@H](Cc2ccc(O)cc2)C(=O)N2C[C@H](O)C[C@@H]2C(=O)N[C@@H](Cc2c[nH]c3ccccc23)C(=O)N[C@@H](Cc2ccc(O)cc2)C(=O)N[C@@H](CCOC)C(=O)N[C@H](C(=O)NCC(N)=O)CSCC(=O)N[C@@H](Cc2cc(F)c(F)c(F)c2)C(=O)N(C)[C@@H](Cc2ccccc2)C(=O)N1C` [Example 10183] ({CH2CO}-[Phe(3,4,5-F3)][NMeF][NMeNle][X1]DV[NMeF]Y[d(cisHyp)]WY[hSer](Me)CG-NH2; thioether N-13) it is 10 to 99.9 nM; for `CCCC[C@H]1C(=O)N(C)[C@@H](CCCC)C(=O)N[C@@H](CCC(=O)O)C(=O)N[C@H](C(=O)NCC(N)=O)CSCC(=O)N[C@@H](Cc2ccc(OC)cc2)C(=O)N(C)[C@@H](C)C(=O)N[C@@H](CC(N)=O)C(=O)N2CCC[C@H]2C(=O)N[C@@H](Cc2cnc[nH]2)C(=O)N[C@@H](CCC(=O)O)C(=O)N2C[C@H](O)C[C@H]2C(=O)N[C@@H](Cc2c[nH]c3ccccc23)C(=O)N[C@@H](CCN)C(=O)N[C@@H](Cc2c[nH]c3ccccc23)C(=O)N1C` [Example 7109] ({CH2CO}-Y(Me)[NMeA]NPHE[Hyp]W[Dab]W[NMeNle][NMeNle]ECG-NH2; thioether N-14) it is 1 to 9.9 nM.
The figure for `CCCC[C@H]1C(=O)N(C)[C@@H](CCCC)C(=O)N[C@@H](CC(C)C)C(=O)N[C@H](C(=O)NCC(N)=O)CSCC(=O)N[C@@H](Cc2ccc(O)cc2)C(=O)N2CCCC[C@H]2C(=O)N[C@@H](CC(=O)O)C(=O)N2CCC[C@H]2C(=O)N[C@@H](Cc2cnc[nH]2)C(=O)N[C@@H](CCC(N)=O)C(=O)N2C[C@H](O)C[C@H]2C(=O)N[C@@H](Cc2c[nH]c3ccccc23)C(=O)N[C@@H](CO)C(=O)N[C@@H](Cc2csc3ccccc23)C(=O)N1C` [Example 1511] ({CH2CO}-Y[Pip]DPHQ[Hyp]WS[Bta][NMeNle][NMeNle]LCG-NH2; thioether N-14) is 1 to 9.9 nM; for `CCCC[C@H]1C(=O)N2C[C@H](O)C[C@@H]2C(=O)N[C@@H](CC(=O)O)C(=O)N[C@@H](C(C)C)C(=O)N(C)[C@@H](Cc2ccccc2)C(=O)N[C@@H](CCC(=O)O)C(=O)N2CCNC[C@@H]2C(=O)N[C@@H](Cc2c[nH]c3ccccc23)C(=O)N[C@@H](Cc2ccc(O)cc2)C(=O)N[C@@H](CCCN)C(=O)N[C@H](C(=O)NCC(N)=O)CSCC(=O)N[C@@H](Cc2cc(F)c(F)c(F)c2)C(=O)N(C)[C@@H](Cc2ccccc2)C(=O)N1C` [Example 10166] ({CH2CO}-[Phe(3,4,5-F3)][NMeF][NMeNle][d(cisHyp)]DV[NMeF]E[dPip(4-aza)]WY[Orn]CG-NH2; thioether N-13) it is 1 to 9.9 nM; for `CCCC[C@H]1C(=O)N2C[C@H](O)C[C@@H]2C(=O)N[C@@H](CC(=O)O)C(=O)N[C@@H](C(C)C)C(=O)N(C)[C@@H](Cc2ccccc2)C(=O)N[C@@H](CCC(=O)O)C(=O)N2CCOC[C@@H]2C(=O)N[C@@H](Cc2c[nH]c3ccccc23)C(=O)N[C@@H](Cc2ccc(O)cc2)C(=O)N[C@@H](CCC(N)=O)C(=O)N[C@H](C(=O)NCC(N)=O)CSCC(=O)N[C@@H](Cc2cc(F)c(F)c(F)c2)C(=O)N(C)[C@@H](Cc2ccc(F)cc2)C(=O)N1C` [Example 10595] ({CH2CO}-[Phe(3,4,5-F3)][NMePhe(4-F)][NMeNle][d(cisHyp)]DV[NMeF]E[X1]WYQCG-NH2; thioether N-13) it is 1 to 9.9 nM.
Take `CCCC[C@H]1C(=O)N2CCC[C@@H]2C(=O)N[C@@H](CC(=O)O)C(=O)N[C@@H](C(C)C)C(=O)N(C)[C@@H](Cc2ccccc2)C(=O)N[C@@H](CCC(=O)O)C(=O)N2CCOC[C@@H]2C(=O)N[C@@H](Cc2c[nH]c3ccccc23)C(=O)N[C@@H](Cc2ccc(O)cc2)C(=O)N[C@@H](CCC(N)=O)C(=O)N[C@H](C(=O)NCC(N)=O)CSCC(=O)N[C@@H](Cc2cc(F)c(F)c(F)c2)C(=O)N(C)[C@@H](Cc2ccc(F)cc2)C(=O)N1C` [Example 10607] ({CH2CO}-[Phe(3,4,5-F3)][NMePhe(4-F)][NMeNle][dP]DV[NMeF]E[X1]WYQCG-NH2; thioether N-13): the IC50 is 1 to 9.9 nM.
The figure for `CCCC[C@H]1C(=O)N2C[C@H](O)C[C@@H]2C(=O)N2C[C@H](N)C[C@H]2C(=O)N[C@@H](C(C)C)C(=O)N(C)[C@@H](Cc2ccccc2)C(=O)N[C@@H](CCC(=O)O)C(=O)N2CCOC[C@@H]2C(=O)N[C@@H](Cc2c[nH]c3ccccc23)C(=O)N[C@@H](Cc2ccc(O)cc2)C(=O)N[C@@H](CC(C)C)C(=O)N[C@H](C(=O)NCC(N)=O)CSCC(=O)N[C@@H](Cc2cc(F)c(F)c(F)c2)C(=O)N(C)[C@@H](Cc2ccccc2)C(=O)N1C` [Example 3216] ({CH2CO}-[Phe(3,4,5-F3)][NMeF][NMeNle][d(cisHyp)][Pro(4R-NH2)]V[NMeF]E[X1]WYLCG-NH2; thioether N-13) is 10 to 99.9 nM; for `CCCC[C@H]1C(=O)N(C)[C@@H](CCCC)C(=O)N[C@@H](CN)C(=O)N[C@H](C(=O)NCC(N)=O)CSCC(=O)N[C@@H](Cc2ccc(O)cc2)C(=O)N(C)[C@@H](C)C(=O)N[C@@H](CC(=O)O)C(=O)N2CCC[C@H]2C(=O)N[C@@H](CN)C(=O)N[C@@H](CCC(N)=O)C(=O)N2C[C@H](O)C[C@H]2C(=O)N[C@@H](Cc2c[nH]c3ccccc23)C(=O)N[C@@H](CCN)C(=O)N[C@@H](Cc2cn(CC(=O)O)c3ccccc23)C(=O)N1C` [Example 5192] ({CH2CO}-Y[NMeA]DP[Dap]Q[Hyp]W[Dab][Trp(1-CH2COOH)][NMeNle][NMeNle][Dap]CG-NH2; thioether N-14) it is 1 to 9.9 nM.
Regarding `CCCC[C@H]1C(=O)N2C[C@H](O)C[C@@H]2C(=O)N[C@@H](CC(=O)O)C(=O)N[C@@H](C(C)C)C(=O)N(C)[C@@H](Cc2ccccc2)C(=O)N[C@@H](CCCCN)C(=O)N2C[C@H](O)C[C@@H]2C(=O)N[C@@H](Cc2c[nH]c3ccccc23)C(=O)N[C@@H](Cc2ccc(O)cc2)C(=O)N[C@@H](CC(C)C)C(=O)N[C@H](C(=O)NCC(N)=O)CSCC(=O)N[C@@H](Cc2ccc(F)c(F)c2)C(=O)N(C)[C@@H](Cc2ccccc2)C(=O)N1C` [Example 9294] ({CH2CO}-[Phe(3,4-F2)][NMeF][NMeNle][d(cisHyp)]DV[NMeF]K[d(cisHyp)]WYLCG-NH2; thioether N-13), the IC50 is 1 to 9.9 nM.
Consider `CCCC[C@H]1C(=O)N2C[C@@H](O)C[C@@H]2C(=O)N[C@@H](CC(=O)O)C(=O)N[C@@H](C)C(=O)N(C)[C@@H](Cc2ccccc2)C(=O)N[C@@H](Cc2ccc(O)cc2)C(=O)N(C)CC(=O)N[C@@H](Cc2c[nH]c3ccccc23)C(=O)N[C@@H](Cc2ccc(O)cc2)C(=O)N[C@@H](CC(C)C)C(=O)N[C@H](C(=O)NCC(N)=O)CSCC(=O)N[C@@H](Cc2ccccc2)C(=O)N(C)[C@@H](Cc2ccccc2)C(=O)N1C` [Example 10086] ({CH2CO}-F[NMeF][NMeNle][dHyp]DA[NMeF]Y[Sar]WYLCG-NH2; thioether N-13), for which the IC50 was in the range of 10 to 99.9 nM.
Consider `CCCC[C@H]1C(=O)N(C)[C@@H](CCCC)C(=O)N[C@@H](CC(C)C)C(=O)N[C@H](C(=O)NCC(N)=O)CSCC(=O)N[C@@H](Cc2ccc(O)cc2)C(=O)N(C)[C@@H](C)C(=O)N[C@@H](CC(N)=O)C(=O)N2CCC[C@H]2C(=O)N[C@H](C)C(=O)N[C@@H](CCC(=O)O)C(=O)N2C[C@H](O)C[C@H]2C(=O)N[C@@H](Cc2c[nH]c3ccccc23)C(=O)N[C@@H](CCN)C(=O)N[C@@H](Cc2csc3ccccc23)C(=O)N1C` [Example 5248] ({CH2CO}-Y[NMeA]NP[dA]E[Hyp]W[Dab][Bta][NMeNle][NMeNle]LCG-NH2; thioether N-14), for which the IC50 fell in the range of 1 to 9.9 nM.
The result for `CCCC[C@H]1C(=O)N(C)[C@@H](CCCC)C(=O)N[C@@H](CCC(=O)O)C(=O)NC(C(=O)NCC(N)=O)CSCC(=O)N[C@@H](Cc2ccc(O)cc2)C(=O)N(C)[C@@H](C)C(=O)N[C@@H](CC(N)=O)C(=O)N2CCC[C@H]2C(=O)N[C@@H](CC(N)=O)C(=O)N[C@@H](CC(C)C)C(=O)N2CCC[C@H]2C(=O)N[C@@H](Cc2c[nH]c3ccccc23)C(=O)N[C@@H](CC(=O)O)C(=O)N[C@@H](Cc2c[nH]c3ccccc23)C(=O)N1C` (stereo partly drawn) [Example 9172] ({CH2CO}-Y[NMeA]NPNLPWDW[NMeNle][NMeNle]E[ξC]G-NH2; thioether N-14) reads 100 to 990 nM; that for `CCCC[C@H]1C(=O)N(C)[C@@H](CCCC)C(=O)N[C@@H](CC(C)C)C(=O)N[C@H](C(N)=O)CSCC(=O)N[C@@H](Cc2ccc(O)cc2)C(=O)N(C)[C@@H](C)C(=O)N[C@@H](CC(N)=O)C(=O)N2CCC[C@H]2C(=O)N[C@@H](CN)C(=O)N[C@@H](CC(C)C)C(=O)N2C[C@H](O)C[C@H]2C(=O)N[C@@H](Cc2c[nH]c3ccccc23)C(=O)N[C@@H](CCN)C(=O)N[C@@H](Cc2cn(CC(=O)O)c3ccccc23)C(=O)N1C` [Example 6310] ({CH2CO}-Y[NMeA]NP[Dap]L[Hyp]W[Dab][Trp(1-CH2COOH)][NMeNle][NMeNle]LC-NH2; thioether N-14), 10 to 99.9 nM.
